Test results: patent publication US7879789B2, “Surfactant and composition containing the same” (priority 2006, dated 2011)

Assay: Emulsion stability of Table 1 blending compositions with various emulsifiers
Type: physicochemical
Settings: storage at low temperature; Table 2
Protocol: The present inventors have prepared various polyoxyalkylene substitution compounds according to the respective synthesis examples and evaluated the emulsion stability for the blending compositions shown in Table 1. The various evaluation items are as follows. “Emulsion Stability” The oil phase component, water phase component, and various emulsifiers shown in Table 1 were mixed, and the emulsification mixing was carried out with a homomixer at 8000 rpm for 1 minute. The appearance was visually observed 30 minutes after emulsification, and the appearances were also observed after being stored for 3 days on standing at room temperature and also at −5° C., respectively. The evaluation criteria were as follows. • ◯ . . . The emulsion was uniform and milky white. • Δ . . . A small amount of floating oil was observed; however, it was milky white. • X . . . Solid matter was observed, or the separation of the water phase and the oil phase was observed.

Structure (SMILES)	emulsion stability at low temperature (in words)
CCCCCCCCCCCC(=O)N[C@@H](CCC(=O)[O-])C(=O)[O-].[Na+].[Na+] [1-2, Sodium lauroyl-glutamate]	the emulsifier separated out
CCCCCCCCCCCCOS(=O)(=O)[O-].[Na+] [Comparative Examples 1-1, Dodecyl sodium sulfate]	the emulsifier separated out
